Entries after “also recorded” stand apart in the source; their conditions may differ.
Experiments:
Assay type in all cases: physicochemical
[1] = Stable form screen slurries, form by XRPD; settings: for Relative thermodynamic stability of the polymorph (conclusion from slurries): slurries at RT, 40° C., about 2 weeks
Protocol: Slurrying: Suspensions were prepared by adding enough solids to a given solvent at the stated conditions so that undissolved solids were present. The mixture was then agitated (typically by stirring or oscillation) in a sealed vial at a given temperature for an extended period of time.
Slurry experiments were conducted to determine the relative stability of Forms I, III, and IV. The screening conditions are tabulated at Tables 9-11.
In these experiments, saturated solutions containing excess undissolved solids were stirred for extended durations. […] Slurries were conducted RT, 40° C., 5° C., and −20° C. for approximately 2 weeks.

[2] = Thermogravimetric analysis (TGA), decomposition; settings: 25 to 350° C. at 10° C./min under nitrogen
Protocol: TGA or TGA/DSC analyses were performed using a Mettler-Toledo TGA/DSC3+ analyzer. Temperature and enthalpy adjustments were performed using indium, tin, zinc, and phenyl salicylate, and then verified with indium. The balance was verified with calcium oxalate. The sample was placed in an aluminum pan. The pan was hermetically sealed, the lid pierced, and the pan was then inserted into the TG furnace. A weighed aluminum pan configured as the sample pan was placed on the reference platform. The furnace was heated under nitrogen. Samples were analyzed from 25° C. to 350° C. at 10° C./min. Thermogravimetric analyses typically experience a period of equilibration at the start of each analysis, indicated by parentheses on the thermograms in the Figures section (V). The starting temperature for relevant weight loss calculations is selected at a point beyond this region (typically above 35° C.) for accuracy.

[3] = Solid state heating experiments, form conversion
[4] = Aqueous solubility by solvent addition, visual assessment; settings: water, calculated from total solvent used
[5] = Cycling DSC of amorphous N,N-DMT prepared in situ (glass transition)
Protocol: A cycling DSC experiment was performed to investigate a potential glass transition temperature by preparing amorphous solids in situ, starting with Form IV.
At the start of the experiment, Form IV solids were heated past the melt (to 80° C.) and held for 10 minutes. The melted material was quickly cooled to −80° C., then reheated to 200° C. A glass transition (Tg) is observed as a step in the green curve at −18° ° C. Amorphous materials tend to spontaneously crystallize at temperatures above the Tg.

[6] = Slurry competition (interconversion) studies between Forms I and IV in heptane; settings: mixture of Form I and Form IV, pre-saturated heptane, 7 d
Protocol: Interconversion slurries were conducted in heptane at RT, −20° C., and 40° C. as in Table 12. In these slurries, the heptane was pre-saturated with N,N-DMT using Form IV solids at the stated temperature, and a portion of the liquid phase was filtered into a mixture of Form I and Form IV solids.

[7] = Hygroscopicity by dynamic vapor sorption (DVS)

CN(C)CCc1c[nH]c2ccccc12 [Form III, N,N-dimethyltryptamine]
Relative thermodynamic stability of the polymorph (conclusion from slurries) ([1]; 5° C., −20° C.): metastable across all temperatures; also recorded: metastable at all conditions tested
XRPD Result after slurry ([1]; start Form III, EtOAc/heptane (5:95), −20° C., 15 d): Form I
XRPD Result after slurry ([1]; start Form III, IPAc/heptane (3:97), RT, 13 d): Form IV
XRPD Result after slurry ([1]; start Form III, MeOH/water (20:80), 5° C., 15 d, sample oily before analysis): amorphous
XRPD Result after slurry ([1]; start Form III, heptane, RT, 15 d): Form I
Decomposition (steep drop in TGA thermogram) begins above [2]: > 240 °C
Form conversion on solid state heating ([3]; held between 35° C. and 40° C.): concurrently melt and recrystallize to Form IV

CN(C)CCc1c[nH]c2ccccc12 [Form IV, N,N-dimethyltryptamine]
Relative thermodynamic stability of the polymorph (conclusion from slurries) ([1]; 5° C., −20° C.): most thermodynamically stable polymorph; also recorded: remained unchanged upon slurrying in various solvent systems; also recorded: most thermodynamically stable form
XRPD Result after slurry ([1]; start Form IV, EtOAc/heptane (5:95), −20° C., 13 d): Form IV
XRPD Result after slurry ([1]; start Form IV, MeOH/water (20:80), 5° C., 13 d): Form IV
XRPD Result after slurry ([1]; start Form IV, acetone/water (10:90), RT, 13 d): Form IV
XRPD Result after slurry ([1]; start Form IV, heptane, RT, 13 d): Form IV
Decomposition (steep drop in TGA thermogram) begins above [2]: > 240 °C
Aqueous solubility [4]: (<1) mg/mL
Form change on solid state heating ([3]; heating at 50° C. for 10 minutes): no changes

CN(C)CCc1c[nH]c2ccccc12 [amorphous N,N-DMT, N,N-dimethyltryptamine]
Glass transition (Tg) ([5]; Form IV melted at 80° C., 10 min, cooled to −80° C., reheated to 200° C.): −18 °C
Physical stability of amorphous material ([5]; heating/melting experiments, −20° C. to 40° C., above Tg): readily crystallize; also recorded: poor physical stability

CN(C)CCc1c[nH]c2ccccc12 [Form I and Form IV, N,N-dimethyltryptamine]
XRPD Result after competition slurry ([6]; 40° C.): Form IV
XRPD Result after competition slurry ([6]; RT): Form IV
XRPD Result after competition slurry ([6]; −20° C.): Form IV

CN(C)CCc1c[nH]c2ccccc12 [Form I, N,N-dimethyltryptamine]
XRPD Result after slurry ([1]; start Form I, EtOAc/cyclohexane (5:95), attempted slurry, RT, 13 d): Form I
XRPD Result after slurry ([1]; start Form I, IPA/water (10:90), 5° C., 13 d): Form I
XRPD Result after slurry ([1]; start Form I, THF/water (5:95), attempted slurry, RT, 13 d): Form IV
XRPD Result after slurry ([1]; start Form I, acetone/water (10:90), 5° C., 13 d): Form IV
XRPD Result after slurry ([1]; start Form I, cyclohexane, RT, 13 d): Form I
XRPD Result after slurry ([1]; start Form I, heptane, RT, 13 d): Form I
XRPD Result after slurry ([1]; start Form I, heptane, −20° C., 17 d): Form I
Hygroscopicity [DVS], water uptake ([7]; at 60% RH): 0.04 wt % water at
Hygroscopicity [DVS], water uptake ([7]; at 90% RH): 60% RH and 0.18%
Form after DVS cycle and drying ([7]; post-DVS solids dried at 60° C.): form change; also recorded: recrystallized upon cooling to ambient temperature to lower-melting Form III
solubility ([4]; thermodynamic from solid): < 1000 µg/mL
